Laboratory results: ChEMBL document CHEMBL4507274 (2021)

Legend:
[1] = target: Tyrosine-protein kinase SYK (Homo sapiens) (UniProt P43405); conditions: Compound concentration 100.0 nM
[2] = target: Mitogen-activated protein kinase 11 (Homo sapiens) (UniProt Q15759); conditions: Compound concentration 100.0 nM
[3] = target: Serine/threonine-protein kinase 32B (Homo sapiens) (UniProt Q9NY57); conditions: Compound concentration 100.0 nM
[4] = target: Bone morphogenetic protein receptor type-2 (Homo sapiens) (UniProt Q13873); conditions: Compound concentration 100.0 nM
[5] = target: Peripheral plasma membrane protein CASK (Homo sapiens) (UniProt O14936); conditions: Compound concentration 100.0 nM
[6] = target: Serine/threonine-protein kinase haspin (Homo sapiens) (UniProt Q8TF76); conditions: Compound concentration 100.0 nM
[7] = target: Cyclin-dependent kinase 7 (Homo sapiens) (UniProt P50613); conditions: Compound concentration 100.0 nM
[8] = target: cGMP-dependent protein kinase 2 (Homo sapiens) (UniProt Q13237); conditions: Compound concentration 100.0 nM
[9] = target: Serine/threonine-protein kinase 17A (Homo sapiens) (UniProt Q9UEE5); conditions: Compound concentration 100.0 nM
[10] = target: Serine/threonine-protein kinase PAK 1 (Homo sapiens) (UniProt Q13153); conditions: Compound concentration 100.0 nM
[11] = target: Serine/threonine-protein kinase LATS1 (Homo sapiens) (UniProt O95835); conditions: Compound concentration 100.0 nM
[12] = tested on: Hepatocyte growth factor receptor (Homo sapiens), P08581 [M1250T]; conditions: Compound concentration 100.0 nM
[13] = target: Serine/threonine-protein kinase NLK (Homo sapiens) (UniProt Q9UBE8); conditions: Compound concentration 100.0 nM
[14] = tested on: Mast/stem cell growth factor receptor Kit (Homo sapiens), P10721 [V559D,V654A]; conditions: Compound concentration 100.0 nM
[15] = target: Serine/threonine-protein kinase 33 (Homo sapiens) (UniProt Q9BYT3); conditions: Compound concentration 100.0 nM
[16] = target: Tyrosine-protein kinase Fgr (Homo sapiens) (UniProt P09769); conditions: Compound concentration 100.0 nM
[17] = target: Ribosomal protein S6 kinase alpha-5 (Homo sapiens) (UniProt O75582); conditions: Compound concentration 100.0 nM
[18] = target: Receptor tyrosine-protein kinase erbB-2 (Homo sapiens) (UniProt P04626); conditions: Compound concentration 100.0 nM
[19] = target: Muscarinic acetylcholine receptor M3 (Homo sapiens) (UniProt P20309); conditions: Compound concentration 10.0 uM
[20] = target: Serine/threonine-protein kinase 25 (Homo sapiens) (UniProt O00506); conditions: Compound concentration 100.0 nM
[21] = target: Sodium-dependent serotonin transporter (Homo sapiens) (UniProt P31645); conditions: Compound concentration 10.0 uM
[22] = tested on: Phosphatidylinositol 4,5-bisphosphate 3-kinase catalytic subunit alpha isoform (Homo sapiens), P42336 [E545A]; conditions: Compound concentration 100.0 nM
[23] = target: Serine/threonine-protein kinase pim-2 (Homo sapiens) (UniProt Q9P1W9); conditions: Compound concentration 100.0 nM
[24] = target: Dual specificity protein kinase CLK1 (Homo sapiens) (UniProt P49759); conditions: Compound concentration 100.0 nM
[25] = target: Ribosomal protein S6 kinase alpha-6 (Homo sapiens) (UniProt Q9UK32); conditions: Compound concentration 100.0 nM
[26] = tested on: Tyrosine-protein kinase ABL1 (Homo sapiens), P00519 [F317I]; conditions: Compound concentration 100.0 nM
[27] = target: 1-phosphatidylinositol 3-phosphate 5-kinase (Homo sapiens) (UniProt Q9Y2I7); conditions: Compound concentration 100.0 nM
[28] = tested on: Tyrosine-protein kinase ABL1 (Homo sapiens), P00519 [H396P]; conditions: Compound concentration 100.0 nM
[29] = target: D(1A) dopamine receptor (Homo sapiens) (UniProt P21728); conditions: Compound concentration 10.0 uM
[30] = target: Fibroblast growth factor receptor 2 (Homo sapiens) (UniProt P21802); conditions: Compound concentration 100.0 nM
[31] = tested on: Mast/stem cell growth factor receptor Kit (Homo sapiens), P10721 [A829P]; conditions: Compound concentration 100.0 nM
[32] = target: Cyclin-dependent kinase 17 (Homo sapiens) (UniProt Q00537); conditions: Compound concentration 100.0 nM
[33] = target: T1, Calcium/calmodulin-dependent protein kinase type IV (Homo sapiens) (UniProt Q16566); conditions: Compound concentration 100.0 nM
T1 sequence (whole entry): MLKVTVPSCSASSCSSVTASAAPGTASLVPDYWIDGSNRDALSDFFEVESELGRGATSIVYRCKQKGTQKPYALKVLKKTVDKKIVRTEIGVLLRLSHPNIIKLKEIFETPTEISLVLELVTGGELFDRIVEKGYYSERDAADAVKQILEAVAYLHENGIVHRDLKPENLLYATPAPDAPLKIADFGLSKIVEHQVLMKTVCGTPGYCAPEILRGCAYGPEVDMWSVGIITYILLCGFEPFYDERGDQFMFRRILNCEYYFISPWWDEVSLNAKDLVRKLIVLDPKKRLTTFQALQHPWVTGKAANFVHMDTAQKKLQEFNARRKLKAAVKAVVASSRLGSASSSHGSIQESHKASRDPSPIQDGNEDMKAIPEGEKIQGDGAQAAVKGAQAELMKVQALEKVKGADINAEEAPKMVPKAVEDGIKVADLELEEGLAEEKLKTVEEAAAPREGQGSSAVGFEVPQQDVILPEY

[34] = tested on: Receptor-type tyrosine-protein kinase FLT3 (Homo sapiens), P36888 [K663Q]; conditions: Compound concentration 100.0 nM
[35] = target: Serine/threonine-protein kinase MRCK beta (Homo sapiens) (UniProt Q9Y5S2); conditions: Compound concentration 100.0 nM
[36] = target: Tyrosine-protein kinase BTK (Homo sapiens) (UniProt Q06187); conditions: Compound concentration 100.0 nM
[37] = target: Mitogen-activated protein kinase 6 (Homo sapiens) (UniProt Q16659); conditions: Compound concentration 100.0 nM
[38] = target: Cyclin-dependent kinase 14 (Homo sapiens) (UniProt O94921); conditions: Compound concentration 100.0 nM
[39] = target: Maternal embryonic leucine zipper kinase (Homo sapiens) (UniProt Q14680); conditions: Compound concentration 100.0 nM

Chain of Cyclin-dependent kinase 14 (Homo sapiens) (O94921 whole entry): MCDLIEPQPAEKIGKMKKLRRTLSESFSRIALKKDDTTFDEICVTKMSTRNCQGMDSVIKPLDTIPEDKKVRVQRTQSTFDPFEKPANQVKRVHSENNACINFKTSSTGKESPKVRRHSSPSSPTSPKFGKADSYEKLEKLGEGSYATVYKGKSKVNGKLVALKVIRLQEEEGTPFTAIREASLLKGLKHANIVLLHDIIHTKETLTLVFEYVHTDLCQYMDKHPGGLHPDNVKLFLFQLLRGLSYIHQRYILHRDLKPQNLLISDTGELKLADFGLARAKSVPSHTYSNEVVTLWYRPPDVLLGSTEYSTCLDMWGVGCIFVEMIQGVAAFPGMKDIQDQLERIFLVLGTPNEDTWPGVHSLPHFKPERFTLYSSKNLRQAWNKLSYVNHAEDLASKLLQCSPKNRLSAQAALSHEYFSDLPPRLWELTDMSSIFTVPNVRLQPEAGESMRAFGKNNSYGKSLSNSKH
Chain of Bone morphogenetic protein receptor type-2 (Homo sapiens) (Q13873 whole entry): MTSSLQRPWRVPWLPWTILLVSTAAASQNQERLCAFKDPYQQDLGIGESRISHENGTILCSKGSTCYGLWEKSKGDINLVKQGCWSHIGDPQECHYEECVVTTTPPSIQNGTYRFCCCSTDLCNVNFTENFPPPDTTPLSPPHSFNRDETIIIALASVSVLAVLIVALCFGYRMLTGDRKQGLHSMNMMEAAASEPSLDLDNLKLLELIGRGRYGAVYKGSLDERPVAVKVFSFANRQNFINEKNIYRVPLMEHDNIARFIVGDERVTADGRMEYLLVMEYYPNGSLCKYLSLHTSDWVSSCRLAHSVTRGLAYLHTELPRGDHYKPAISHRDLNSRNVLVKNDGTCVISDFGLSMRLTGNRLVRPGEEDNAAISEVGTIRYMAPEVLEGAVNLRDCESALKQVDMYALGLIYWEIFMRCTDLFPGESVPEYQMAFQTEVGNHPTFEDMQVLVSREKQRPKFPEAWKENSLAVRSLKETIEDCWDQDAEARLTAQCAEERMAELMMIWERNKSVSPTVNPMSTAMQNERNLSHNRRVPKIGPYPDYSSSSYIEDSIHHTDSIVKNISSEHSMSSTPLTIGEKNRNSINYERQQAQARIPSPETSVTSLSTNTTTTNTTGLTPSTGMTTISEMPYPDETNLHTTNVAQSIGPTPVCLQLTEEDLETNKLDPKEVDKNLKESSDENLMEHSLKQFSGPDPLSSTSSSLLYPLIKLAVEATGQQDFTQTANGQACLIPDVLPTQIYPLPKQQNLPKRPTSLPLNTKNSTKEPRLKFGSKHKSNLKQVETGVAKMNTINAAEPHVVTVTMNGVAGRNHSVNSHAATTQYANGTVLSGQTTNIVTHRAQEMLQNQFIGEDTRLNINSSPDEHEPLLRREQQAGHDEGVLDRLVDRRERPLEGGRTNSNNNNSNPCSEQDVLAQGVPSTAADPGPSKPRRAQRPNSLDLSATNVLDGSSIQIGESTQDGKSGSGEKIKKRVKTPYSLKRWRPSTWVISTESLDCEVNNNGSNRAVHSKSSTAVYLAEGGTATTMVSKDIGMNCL
Chain of Sodium-dependent serotonin transporter (Homo sapiens) (P31645 whole entry, looked up, canonical isoform): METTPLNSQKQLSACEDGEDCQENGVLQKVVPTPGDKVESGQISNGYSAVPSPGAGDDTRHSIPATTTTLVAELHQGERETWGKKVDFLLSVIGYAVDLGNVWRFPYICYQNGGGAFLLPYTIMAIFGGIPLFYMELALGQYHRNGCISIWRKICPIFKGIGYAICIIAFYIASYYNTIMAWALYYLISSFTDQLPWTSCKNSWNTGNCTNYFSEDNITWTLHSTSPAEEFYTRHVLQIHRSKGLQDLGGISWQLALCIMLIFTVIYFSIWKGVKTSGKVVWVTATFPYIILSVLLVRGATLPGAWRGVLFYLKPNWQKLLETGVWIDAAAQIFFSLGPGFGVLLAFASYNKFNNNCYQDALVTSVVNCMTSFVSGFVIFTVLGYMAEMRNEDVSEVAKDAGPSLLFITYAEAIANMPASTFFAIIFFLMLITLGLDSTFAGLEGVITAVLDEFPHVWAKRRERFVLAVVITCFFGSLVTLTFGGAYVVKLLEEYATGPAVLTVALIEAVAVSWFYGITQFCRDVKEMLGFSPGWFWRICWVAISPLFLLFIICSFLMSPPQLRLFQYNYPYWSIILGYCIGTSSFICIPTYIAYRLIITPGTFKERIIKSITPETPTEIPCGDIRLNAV
Chain of Ribosomal protein S6 kinase alpha-6 (Homo sapiens) (Q9UK32 whole entry): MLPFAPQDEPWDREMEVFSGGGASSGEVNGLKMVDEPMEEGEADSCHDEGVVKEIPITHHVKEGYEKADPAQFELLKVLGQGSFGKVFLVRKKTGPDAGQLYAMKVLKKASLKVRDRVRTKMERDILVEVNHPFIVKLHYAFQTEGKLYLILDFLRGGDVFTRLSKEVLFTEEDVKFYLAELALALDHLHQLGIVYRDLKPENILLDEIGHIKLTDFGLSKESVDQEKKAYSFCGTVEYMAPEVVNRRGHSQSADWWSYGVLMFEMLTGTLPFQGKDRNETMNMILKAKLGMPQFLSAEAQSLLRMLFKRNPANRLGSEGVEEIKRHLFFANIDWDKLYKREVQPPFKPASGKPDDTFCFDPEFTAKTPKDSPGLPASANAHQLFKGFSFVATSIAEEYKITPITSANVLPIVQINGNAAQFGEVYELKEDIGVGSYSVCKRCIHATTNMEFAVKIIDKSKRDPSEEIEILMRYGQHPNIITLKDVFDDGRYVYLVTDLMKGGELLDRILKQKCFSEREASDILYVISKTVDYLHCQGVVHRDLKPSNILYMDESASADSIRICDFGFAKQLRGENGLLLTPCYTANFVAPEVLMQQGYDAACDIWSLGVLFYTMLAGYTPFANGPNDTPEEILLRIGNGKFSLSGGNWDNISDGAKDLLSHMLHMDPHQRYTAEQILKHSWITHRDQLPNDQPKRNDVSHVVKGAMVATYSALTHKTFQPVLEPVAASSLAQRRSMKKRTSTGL
Chain of Mitogen-activated protein kinase 11 (Homo sapiens) (Q15759 whole entry): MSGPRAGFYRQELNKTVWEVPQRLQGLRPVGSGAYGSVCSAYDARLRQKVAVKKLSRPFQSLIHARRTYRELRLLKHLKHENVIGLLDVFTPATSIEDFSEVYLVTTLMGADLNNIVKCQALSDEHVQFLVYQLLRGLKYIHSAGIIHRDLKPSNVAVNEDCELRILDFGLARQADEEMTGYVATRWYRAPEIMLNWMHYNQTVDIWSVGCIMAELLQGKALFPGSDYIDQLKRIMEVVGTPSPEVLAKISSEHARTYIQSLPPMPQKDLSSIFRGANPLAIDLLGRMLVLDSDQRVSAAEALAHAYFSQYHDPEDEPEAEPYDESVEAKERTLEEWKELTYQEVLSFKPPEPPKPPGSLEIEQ
Chain of Mast/stem cell growth factor receptor Kit (Homo sapiens), P10721 [A829P] (P10721 whole entry A829P): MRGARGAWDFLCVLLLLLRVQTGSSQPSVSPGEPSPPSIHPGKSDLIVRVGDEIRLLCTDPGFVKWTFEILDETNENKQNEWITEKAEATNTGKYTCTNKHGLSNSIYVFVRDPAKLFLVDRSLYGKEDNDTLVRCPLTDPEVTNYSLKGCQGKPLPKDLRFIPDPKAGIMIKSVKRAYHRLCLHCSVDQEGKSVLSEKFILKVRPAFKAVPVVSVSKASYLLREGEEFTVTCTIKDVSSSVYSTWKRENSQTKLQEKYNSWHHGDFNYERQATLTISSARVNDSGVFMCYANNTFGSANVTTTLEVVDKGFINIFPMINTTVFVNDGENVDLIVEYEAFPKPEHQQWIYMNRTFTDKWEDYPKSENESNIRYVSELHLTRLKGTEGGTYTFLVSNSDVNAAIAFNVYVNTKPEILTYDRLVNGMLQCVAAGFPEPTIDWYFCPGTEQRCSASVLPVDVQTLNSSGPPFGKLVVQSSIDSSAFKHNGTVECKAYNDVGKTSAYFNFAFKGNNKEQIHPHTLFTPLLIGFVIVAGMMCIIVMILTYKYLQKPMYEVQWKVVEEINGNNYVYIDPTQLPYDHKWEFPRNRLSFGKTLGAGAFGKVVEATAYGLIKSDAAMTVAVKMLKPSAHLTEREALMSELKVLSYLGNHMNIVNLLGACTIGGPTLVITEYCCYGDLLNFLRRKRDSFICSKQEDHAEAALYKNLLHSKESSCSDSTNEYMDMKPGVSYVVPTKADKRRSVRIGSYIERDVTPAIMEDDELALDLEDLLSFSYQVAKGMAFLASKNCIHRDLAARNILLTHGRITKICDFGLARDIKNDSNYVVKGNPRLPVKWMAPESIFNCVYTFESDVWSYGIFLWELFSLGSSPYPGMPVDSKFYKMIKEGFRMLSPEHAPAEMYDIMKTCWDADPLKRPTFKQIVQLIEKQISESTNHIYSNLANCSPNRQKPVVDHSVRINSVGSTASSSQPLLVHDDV
Chain of Serine/threonine-protein kinase NLK (Homo sapiens) (Q9UBE8 whole entry): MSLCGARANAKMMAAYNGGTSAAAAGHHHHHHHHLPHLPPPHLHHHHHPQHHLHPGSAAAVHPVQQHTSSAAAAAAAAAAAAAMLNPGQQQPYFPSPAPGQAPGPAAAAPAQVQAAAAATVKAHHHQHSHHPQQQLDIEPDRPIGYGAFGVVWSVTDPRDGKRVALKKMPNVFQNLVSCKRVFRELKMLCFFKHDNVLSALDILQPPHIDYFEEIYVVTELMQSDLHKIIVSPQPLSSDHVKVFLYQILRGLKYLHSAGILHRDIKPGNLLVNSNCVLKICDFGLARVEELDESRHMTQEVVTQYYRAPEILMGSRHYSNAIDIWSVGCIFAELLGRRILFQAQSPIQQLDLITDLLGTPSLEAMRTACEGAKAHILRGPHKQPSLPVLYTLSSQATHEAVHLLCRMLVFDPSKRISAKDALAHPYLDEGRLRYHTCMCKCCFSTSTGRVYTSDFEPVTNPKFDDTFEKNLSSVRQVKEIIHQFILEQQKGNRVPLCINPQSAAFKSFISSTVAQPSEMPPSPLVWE
Chain of Mast/stem cell growth factor receptor Kit (Homo sapiens), P10721 [V559D,V654A] (P10721 whole entry V559D/V654A): as the sequence (P10721 whole entry A829P) above, with V559D, V654A, P829A counted along it

`Cn1cc(Cl)c2c(Oc3c(F)cc(Nc4cc(Cl)nc(N)n4)cc3F)ccnc21` [BAY-4900] gave a residual activity [1] of 100%, a residual activity [2] of 100% and a residual activity [3] of 99%. The residual activity [4] was 100%, the residual activity [5] was 100% and the residual activity [6] was 74%. It also gave a residual activity [7] of 100%, a residual activity [8] of 83% and a residual activity [9] of 94%. The residual activity [10] was 100%, the residual activity [11] was 69% and the residual activity [12] was 100%. For the same compound, the residual activity [13] was 100%, the residual activity [14] was 90% and the residual activity [15] was 100%. It also gave a residual activity [16] of 100%, a residual activity [17] of 100% and a residual activity [18] of 95%. It also gave an inhibition [19] of -4.88%, a residual activity [20] of 100% and an inhibition [21] of -5.34%. It also gave a residual activity [22] of 88%, a residual activity [23] of 88% and a residual activity [24] of 96%. It also gave a residual activity [25] of 100%, a residual activity [26] of 93% and a residual activity [27] of 91%. It also gave a residual activity [28] of 84%, an inhibition [29] of 13.2% and a residual activity [30] of 98%. The residual activity [31] was 63%, the residual activity [32] was 100% and the residual activity [33] was 96%. For the same compound, the residual activity [34] was 100%, the residual activity [35] was 100% and the residual activity [36] was 84%. The residual activity [37] was 100%, the residual activity [38] was 100% and the residual activity [39] was 89%.

For `Cc1c[nH]c2nccc(Oc3c(F)cc(Nc4cc(Cl)nc(N)n4)cc3F)c12` [BAY-549], the residual activity [1] was 100%, the residual activity [2] was 97% and the residual activity [3] was 71%. The residual activity [4] was 95%, the residual activity [5] was 98% and the residual activity [6] was 61%. It also gave a residual activity [7] of 91%, a residual activity [8] of 90% and a residual activity [9] of 100%. For the same compound, the residual activity [10] was 100%, the residual activity [11] was 42% and the residual activity [12] was 99%. For the same compound, the residual activity [13] was 100%, the residual activity [14] was 94% and the residual activity [15] was 85%. The residual activity [16] was 100%, the residual activity [17] was 93% and the residual activity [18] was 99%. For the same compound, the inhibition [19] was -0.34%, the residual activity [20] was 100% and the inhibition [21] was 2.1%. The residual activity [22] was 88%, the residual activity [23] was 100% and the residual activity [24] was 83%. For the same compound, the residual activity [25] was 99%, the residual activity [26] was 100% and the residual activity [27] was 98%. For the same compound, the residual activity [28] was 82%, the inhibition [29] was 16.1% and the residual activity [30] was 100%. The residual activity [31] was 70%, the residual activity [32] was 81% and the residual activity [33] was 100%. It also gave a residual activity [34] of 87%, a residual activity [35] of 70% and a residual activity [36] of 96%. For the same compound, the residual activity [37] was 95%, the residual activity [38] was 100% and the residual activity [39] was 57%.
